Measurements: ChEMBL document CHEMBL1201862, “PubChem BioAssay data set” (2004)
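Test compounds were applied to cells in 96-well plates for 48 hours at 5 doses. Here, GI50 denotes the concentration required for 50% inhibition of growth.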 The source made the active and inactive calls. Cut-off read from the data, not from the text of the source: active = GI50 up to about 1.1 µM and inactive = higher.

Key:
Test in all cases: inhibition of tumour cell growth, NCI panel, 48 h
A549 = test system: A549
CCRF-CEM = test system: CCRF-CEM
EKVX = test system: EKVX
HCT-15 = test system: HCT-15
HL-60 = test system: HL-60
HT-29 = test system: HT-29
LOX IMVI = test system: LOX IMVI
MOLT-4 = test system: MOLT-4
NCI-H460 = test system: NCI-H460
OVCAR-5 = test system: OVCAR-5
RXF 393 = test system: RXF 393
SF-295 = test system: SF-295
SK-MEL-2 = test system: SK-MEL-2
SN12C = test system: SN12C
TK-10 = test system: TK-10
UACC-62 = test system: UACC-62
HOP-92 = test system: HOP-92

Structure (SMILES) | GI50 (A549) | GI50 (CCRF-CEM) | GI50 (EKVX) | GI50 (HCT-15) [µM] | GI50 (HL-60) | GI50 (HT-29) | GI50 (LOX IMVI) | GI50 (MOLT-4) | GI50 (NCI-H460) | GI50 (OVCAR-5) | GI50 (RXF 393) | GI50 (SF-295) | GI50 (SK-MEL-2) | GI50 (SN12C) | GI50 (TK-10) | GI50 (UACC-62) | GI50 (HOP-92)
CCCCn1c(-c2ccccc2)cs/c1=N\N=C1C=C(C(C)(C)C)C(=O)C(C(C)(C)C)=C1 | > 100 µM (inactive) | > 100 µM (inactive) | > 100 µM (inactive) | > 100 | > 100 µM (inactive) | > 100 µM (inactive) | > 100 µM (inactive) | > 100 µM (inactive) | > 100 µM (inactive) | > 100 µM (inactive) | > 100 µM (inactive) | > 100 µM (inactive) | > 100 µM (inactive) | > 100 µM (inactive) | > 100 µM (inactive) | > 100 µM (inactive) | –
O=c1[nH]c2cccccc-2c1-c1nc2ccccc2[nH]1 | 25 µM (inactive) | 25.5 µM (inactive) | 40.8 µM (inactive) | 21.9 | 36.6 µM (inactive) | 52.2 µM (inactive) | 14.9 µM (inactive) | – | 7.01 µM (inactive) | > 100 µM (inactive) | 20.9 µM (inactive) | 30.5 µM (inactive) | 24.3 µM (inactive) | 31.6 µM (inactive) | 92.7 µM (inactive) | 17.9 µM (inactive) | 25.8 µM (inactive)
COc1ccc(C2S/C(=C\c3cc(OC)c(OC)c(OC)c3)C(=O)N2NC(=O)Cc2ccccc2)cc1 (stereo unspecified) | > 100 µM (inactive) | > 100 µM (inactive) | – | > 100 | > 100 µM (inactive) | > 100 µM (inactive) | > 100 µM (inactive) | 44.3 µM (inactive) | > 100 µM (inactive) | > 100 µM (inactive) | > 100 µM (inactive) | > 100 µM (inactive) | > 100 µM (inactive) | > 100 µM (inactive) | > 100 µM (inactive) | > 100 µM (inactive) | > 100 µM (inactive)
OCCN(CCO)c1cccc(N(CCO)CCO)n1 | > 100 µM (inactive) | > 100 µM (inactive) | > 100 µM (inactive) | > 100 | > 100 µM (inactive) | – | > 100 µM (inactive) | > 100 µM (inactive) | > 100 µM (inactive) | – | > 100 µM (inactive) | > 100 µM (inactive) | > 100 µM (inactive) | > 10 µM (inactive) | > 100 µM (inactive) | 58.2 µM (inactive) | > 100 µM (inactive)
CC(=O)N/C(=C\c1ccc(Cc2nc3c([nH]2)C(=O)c2ccccc2C3=O)cc1)c1nc2c([nH]1)C(=O)c1ccccc1C2=O | > 100 µM (inactive) | > 100 µM (inactive) | > 100 µM (inactive) | – | > 100 µM (inactive) | > 100 µM (inactive) | > 100 µM (inactive) | > 100 µM (inactive) | > 100 µM (inactive) | > 100 µM (inactive) | > 100 µM (inactive) | > 100 µM (inactive) | > 100 µM (inactive) | > 100 µM (inactive) | 78.9 µM (inactive) | – | > 100 µM (inactive)
COc1ccccc1C(N)c1ccccc1 (stereo unspecified) | > 100 µM (inactive) | > 100 µM (inactive) | > 100 µM (inactive) | > 100 | > 100 µM (inactive) | > 100 µM (inactive) | > 100 µM (inactive) | > 100 µM (inactive) | > 100 µM (inactive) | > 100 µM (inactive) | > 100 µM (inactive) | > 100 µM (inactive) | – | > 100 µM (inactive) | > 100 µM (inactive) | > 100 µM (inactive) | 36 µM (inactive)
CC(C)(C)OC(=O)N1C2CCCC23O[C@@H]1c1cc2c(cc1C3=O)OCO2 (stereo partly specified) | 29.4 µM (inactive) | 21.1 µM (inactive) | 43.9 µM (inactive) | – | 5.25 µM (inactive) | 14.5 µM (inactive) | – | 24.6 µM (inactive) | 34 µM (inactive) | > 100 µM (inactive) | 24.5 µM (inactive) | 20.8 µM (inactive) | 53.3 µM (inactive) | 41.2 µM (inactive) | 41 µM (inactive) | 6.24 µM (inactive) | 28.6 µM (inactive)
Cc1ccc(NC(=O)CCC(=O)C2CC(=O)CC/C2=N\NC(=O)c2cc3ccccc3cc2O)cc1C (stereo unspecified) | 25.1 µM (inactive) | 11.5 µM (inactive) | 29 µM (inactive) | 14.7 | 4.35 µM (inactive) | 38.5 µM (inactive) | – | 17.7 µM (inactive) | 25.2 µM (inactive) | 22 µM (inactive) | – | 32.1 µM (inactive) | 26.4 µM (inactive) | 48.9 µM (inactive) | 51.9 µM (inactive) | 10.2 µM (inactive) | 14.3 µM (inactive)
C=CCNC(=O)N(CCC)CCCCC(NC(C)=O)C(=O)NCc1ccccc1 (stereo unspecified) | > 100 µM (inactive) | > 100 µM (inactive) | > 100 µM (inactive) | > 100 | > 100 µM (inactive) | > 100 µM (inactive) | > 100 µM (inactive) | > 100 µM (inactive) | > 100 µM (inactive) | > 100 µM (inactive) | > 100 µM (inactive) | > 100 µM (inactive) | > 100 µM (inactive) | > 100 µM (inactive) | > 100 µM (inactive) | > 100 µM (inactive) | > 100 µM (inactive)
